Experimental data published in PMC5458547, “Discovery of first-in-class reversible dual small molecule inhibitors against G9a and DNMTs in hematological malignancies” (Nature Communications, 2017).

Experiments:
SU-DHL-8 = assay: Cell proliferation assay (MTS); type: cell-based; details: Homo sapiens, ABC-DLBCL, 48 h
5637 = assay: Cell proliferation assay (MTS); type: cell-based; details: Homo sapiens; Bladder
HT = assay: Cell proliferation assay (MTS); type: cell-based; details: Homo sapiens, GC-DLBCL, 48 h
EGFR(L858R) = biological target: T1, EGFR(L858R) (Homo sapiens, UniProt P00533, L858R); assay: KINOMEscan kinase profiling; type: binding; details: read-out: Percent Control
T1 construct: purchased DiscoverX KINOMEscan (kinases); BPS Bioscience (epigenetic targets)
Procedure: (§1) Kinase Selectivity Profiling
(§2) (out of which 90 are non-mutant kinases) was performed at DiscoverRx (http://www.discoverx.com/home) using the KINOMEscan™ screening platform at a test concentration of 10 µM. Results for primary screen […]
(§3) positive control signal) / (negative control signal – positive control signal) *100, where negative control corresponds to DMSO treatment (100%) and positive control to the signal obtained with a control competitive compound (0%). […]
(§4) using the Hill equation. Each target was assayed in duplicate. […]

CHEK1 = biological target: T2, CHEK1 (Homo sapiens, UniProt O14757); assay: KINOMEscan kinase profiling; type: binding; details: read-out: Percent Control
T2 construct: purchased DiscoverX KINOMEscan (kinases); BPS Bioscience (epigenetic targets)
Procedure: as §1, §2, §3, §4

ABL1-phosphorylated = biological target: T3, ABL1-phosphorylated (Homo sapiens, UniProt P00519); assay: KINOMEscan kinase profiling; type: binding; details: read-out: Percent Control
T3 construct: purchased DiscoverX KINOMEscan (kinases); BPS Bioscience (epigenetic targets)
Procedure: as §1, §2, §3, §4

TRKA = biological target: T4, TRKA (Homo sapiens, UniProt P04629); assay: KINOMEscan kinase profiling; type: binding
T4 construct: purchased DiscoverRx (DiscoverX), KINOMEscan screening platform
T4 sequence (P04629 33-796): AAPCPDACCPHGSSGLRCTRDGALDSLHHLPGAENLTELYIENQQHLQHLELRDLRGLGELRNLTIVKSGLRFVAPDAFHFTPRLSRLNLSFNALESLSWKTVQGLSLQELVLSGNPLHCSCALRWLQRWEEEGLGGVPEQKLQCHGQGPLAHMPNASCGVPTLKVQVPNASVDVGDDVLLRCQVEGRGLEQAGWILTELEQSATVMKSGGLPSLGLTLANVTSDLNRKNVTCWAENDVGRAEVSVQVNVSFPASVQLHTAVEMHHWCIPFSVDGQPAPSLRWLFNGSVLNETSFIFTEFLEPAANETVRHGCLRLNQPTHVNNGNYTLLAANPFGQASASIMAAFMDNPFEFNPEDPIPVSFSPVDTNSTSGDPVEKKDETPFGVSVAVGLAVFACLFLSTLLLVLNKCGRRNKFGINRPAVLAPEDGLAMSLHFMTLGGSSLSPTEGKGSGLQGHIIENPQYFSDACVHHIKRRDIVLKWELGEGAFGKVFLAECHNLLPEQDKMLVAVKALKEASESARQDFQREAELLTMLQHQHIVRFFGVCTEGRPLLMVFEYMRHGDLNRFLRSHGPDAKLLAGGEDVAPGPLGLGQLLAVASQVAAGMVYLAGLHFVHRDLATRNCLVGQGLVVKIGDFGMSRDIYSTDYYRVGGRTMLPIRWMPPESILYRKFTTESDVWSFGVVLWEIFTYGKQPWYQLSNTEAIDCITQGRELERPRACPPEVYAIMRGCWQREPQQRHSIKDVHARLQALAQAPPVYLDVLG
Procedure: as §1, §2, §3, §4

CSF1R = biological target: T5, CSF1R (Homo sapiens, UniProt P07333); assay: KINOMEscan kinase profiling; type: binding; details: read-out: Percent Control
T5 construct: purchased DiscoverX KINOMEscan (kinases); BPS Bioscience (epigenetic targets)
T5 sequence (P07333 20-972): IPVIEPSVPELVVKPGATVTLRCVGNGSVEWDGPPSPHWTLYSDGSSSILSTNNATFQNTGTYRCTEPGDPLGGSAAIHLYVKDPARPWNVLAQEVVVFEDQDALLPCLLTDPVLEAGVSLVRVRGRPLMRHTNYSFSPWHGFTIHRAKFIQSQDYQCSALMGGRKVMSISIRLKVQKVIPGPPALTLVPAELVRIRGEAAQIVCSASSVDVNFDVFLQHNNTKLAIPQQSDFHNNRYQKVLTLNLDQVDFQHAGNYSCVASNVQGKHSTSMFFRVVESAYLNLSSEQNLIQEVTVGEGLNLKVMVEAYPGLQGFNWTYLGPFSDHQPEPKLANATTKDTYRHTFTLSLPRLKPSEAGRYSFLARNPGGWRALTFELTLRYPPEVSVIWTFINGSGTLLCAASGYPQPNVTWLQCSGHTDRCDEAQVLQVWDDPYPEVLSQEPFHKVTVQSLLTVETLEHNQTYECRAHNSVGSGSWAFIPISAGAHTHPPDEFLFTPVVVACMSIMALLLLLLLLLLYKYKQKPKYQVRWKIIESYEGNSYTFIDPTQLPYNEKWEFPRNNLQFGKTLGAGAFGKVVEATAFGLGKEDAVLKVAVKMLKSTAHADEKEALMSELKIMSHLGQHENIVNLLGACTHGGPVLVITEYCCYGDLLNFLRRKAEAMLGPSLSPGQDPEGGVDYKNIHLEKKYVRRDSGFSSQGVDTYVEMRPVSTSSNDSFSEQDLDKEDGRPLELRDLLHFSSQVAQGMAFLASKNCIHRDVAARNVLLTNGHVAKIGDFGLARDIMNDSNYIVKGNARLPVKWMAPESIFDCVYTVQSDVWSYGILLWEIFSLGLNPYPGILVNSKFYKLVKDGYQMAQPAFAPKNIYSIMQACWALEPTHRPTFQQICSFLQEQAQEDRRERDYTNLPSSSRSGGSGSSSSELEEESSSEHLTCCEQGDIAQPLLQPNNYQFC
Procedure: as §1, §2, §3, §4

IGF1R = biological target: T6, IGF1R (Homo sapiens, UniProt P08069); assay: KINOMEscan kinase profiling; type: binding; details: read-out: Percent Control
T6 construct: purchased DiscoverX KINOMEscan (kinases); BPS Bioscience (epigenetic targets)
Procedure: as §1, §2, §3, §4

PLK3 = biological target: T7, PLK3 (Homo sapiens, UniProt Q9H4B4); assay: KINOMEscan kinase profiling; type: binding; details: read-out: Percent Control
T7 construct: purchased DiscoverX KINOMEscan (kinases); BPS Bioscience (epigenetic targets)
Procedure: as §1, §2, §3, §4

RAF1 = biological target: T8, RAF1 (Homo sapiens, UniProt P04049); assay: KINOMEscan kinase profiling; type: binding; details: read-out: Percent Control
T8 construct: purchased DiscoverX KINOMEscan (kinases); BPS Bioscience (epigenetic targets)
T8 sequence (P04049 whole entry): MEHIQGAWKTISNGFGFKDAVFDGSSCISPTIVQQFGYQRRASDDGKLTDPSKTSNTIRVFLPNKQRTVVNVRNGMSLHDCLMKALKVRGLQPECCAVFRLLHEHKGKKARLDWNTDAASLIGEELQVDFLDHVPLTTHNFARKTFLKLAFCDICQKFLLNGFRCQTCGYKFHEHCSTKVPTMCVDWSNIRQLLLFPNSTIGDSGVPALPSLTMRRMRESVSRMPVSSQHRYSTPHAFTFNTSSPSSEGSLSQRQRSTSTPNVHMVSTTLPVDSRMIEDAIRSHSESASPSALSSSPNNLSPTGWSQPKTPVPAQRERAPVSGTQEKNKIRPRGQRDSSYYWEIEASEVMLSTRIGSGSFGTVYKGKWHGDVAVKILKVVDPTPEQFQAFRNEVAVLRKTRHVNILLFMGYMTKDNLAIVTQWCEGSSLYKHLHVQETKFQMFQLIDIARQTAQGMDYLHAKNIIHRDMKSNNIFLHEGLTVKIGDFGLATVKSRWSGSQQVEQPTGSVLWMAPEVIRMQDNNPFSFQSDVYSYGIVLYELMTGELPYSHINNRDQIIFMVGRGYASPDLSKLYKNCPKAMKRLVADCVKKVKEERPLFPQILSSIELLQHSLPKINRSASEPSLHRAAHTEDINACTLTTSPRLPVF
Procedure: as §1, §2, §3, §4

AURKA = biological target: T9, AURKA (Homo sapiens, UniProt O14965); assay: KINOMEscan kinase profiling; type: binding; details: read-out: Percent Control
T9 construct: purchased DiscoverX KINOMEscan (kinases); BPS Bioscience (epigenetic targets)
Procedure: as §1, §2, §3, §4

p38-alpha = biological target: T10, p38-alpha (Homo sapiens, UniProt Q16539); assay: KINOMEscan kinase profiling; type: binding; details: read-out: Percent Control
T10 construct: purchased DiscoverX KINOMEscan (kinases); BPS Bioscience (epigenetic targets)
Procedure: as §1, §2, §3, §4

p38-beta = biological target: T11, p38-beta (Homo sapiens, UniProt Q15759); assay: KINOMEscan kinase profiling; type: binding; details: read-out: Percent Control
T11 construct: purchased DiscoverX KINOMEscan (kinases); BPS Bioscience (epigenetic targets)
Procedure: as §1, §2, §3, §4

MLK1 = biological target: T12, MLK1 (Homo sapiens, UniProt P80192); assay: KINOMEscan kinase profiling; type: binding; details: read-out: Percent Control
T12 construct: purchased DiscoverX KINOMEscan (kinases); BPS Bioscience (epigenetic targets)
Procedure: as §1, §2, §3, §4

VEGFR2 = biological target: T13, VEGFR2 (Homo sapiens, UniProt P35968); assay: KINOMEscan kinase profiling; type: binding; details: read-out: Percent Control
T13 construct: purchased DiscoverX KINOMEscan (kinases); BPS Bioscience (epigenetic targets)
T13 sequence (P35968 20-1356): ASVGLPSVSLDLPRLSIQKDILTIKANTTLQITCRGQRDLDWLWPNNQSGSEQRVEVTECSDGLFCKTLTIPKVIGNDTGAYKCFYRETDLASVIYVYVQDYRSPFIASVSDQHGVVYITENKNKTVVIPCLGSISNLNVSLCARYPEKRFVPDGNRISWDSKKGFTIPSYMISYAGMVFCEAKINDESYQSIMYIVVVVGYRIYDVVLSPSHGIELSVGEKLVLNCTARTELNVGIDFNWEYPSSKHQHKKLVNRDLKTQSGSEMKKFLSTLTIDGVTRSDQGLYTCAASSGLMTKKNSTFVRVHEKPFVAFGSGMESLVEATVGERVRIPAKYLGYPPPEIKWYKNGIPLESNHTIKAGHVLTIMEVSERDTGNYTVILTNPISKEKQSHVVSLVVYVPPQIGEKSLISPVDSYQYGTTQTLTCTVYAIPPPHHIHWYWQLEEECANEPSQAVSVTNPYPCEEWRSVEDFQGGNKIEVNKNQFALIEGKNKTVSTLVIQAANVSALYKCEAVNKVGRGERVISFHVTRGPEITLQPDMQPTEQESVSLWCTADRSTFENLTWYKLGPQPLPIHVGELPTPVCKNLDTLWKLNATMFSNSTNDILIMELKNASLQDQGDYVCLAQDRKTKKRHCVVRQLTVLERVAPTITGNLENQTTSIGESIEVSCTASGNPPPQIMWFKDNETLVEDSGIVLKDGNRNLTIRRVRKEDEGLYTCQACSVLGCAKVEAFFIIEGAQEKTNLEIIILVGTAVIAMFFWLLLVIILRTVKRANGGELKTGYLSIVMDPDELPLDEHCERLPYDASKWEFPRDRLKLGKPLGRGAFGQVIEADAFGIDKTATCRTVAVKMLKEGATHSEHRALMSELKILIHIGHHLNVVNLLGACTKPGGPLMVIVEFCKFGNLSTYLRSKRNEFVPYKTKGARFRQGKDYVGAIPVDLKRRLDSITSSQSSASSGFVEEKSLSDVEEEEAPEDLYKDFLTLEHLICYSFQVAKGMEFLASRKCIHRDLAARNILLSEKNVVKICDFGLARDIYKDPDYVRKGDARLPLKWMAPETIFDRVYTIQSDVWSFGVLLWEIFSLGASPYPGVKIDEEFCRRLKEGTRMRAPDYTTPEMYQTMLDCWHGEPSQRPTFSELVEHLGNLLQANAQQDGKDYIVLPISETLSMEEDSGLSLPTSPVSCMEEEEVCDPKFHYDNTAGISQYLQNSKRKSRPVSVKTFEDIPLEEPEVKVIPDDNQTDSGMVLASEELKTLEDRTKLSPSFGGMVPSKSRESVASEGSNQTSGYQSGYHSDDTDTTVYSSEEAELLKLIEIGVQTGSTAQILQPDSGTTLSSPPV
Procedure: as §1, §2, §3, §4

CDK9 = biological target: T14, CDK9 (Homo sapiens, UniProt P50750); assay: KINOMEscan kinase profiling; type: binding; details: read-out: Percent Control
T14 construct: purchased DiscoverX KINOMEscan (kinases); BPS Bioscience (epigenetic targets)
Procedure: as §1, §2, §3, §4

PRKCE = biological target: T15, PRKCE (Homo sapiens, UniProt Q02156); assay: KINOMEscan kinase profiling; type: binding
T15 construct: purchased DiscoverRx (DiscoverX), KINOMEscan screening platform
T15 sequence (Q02156 whole entry): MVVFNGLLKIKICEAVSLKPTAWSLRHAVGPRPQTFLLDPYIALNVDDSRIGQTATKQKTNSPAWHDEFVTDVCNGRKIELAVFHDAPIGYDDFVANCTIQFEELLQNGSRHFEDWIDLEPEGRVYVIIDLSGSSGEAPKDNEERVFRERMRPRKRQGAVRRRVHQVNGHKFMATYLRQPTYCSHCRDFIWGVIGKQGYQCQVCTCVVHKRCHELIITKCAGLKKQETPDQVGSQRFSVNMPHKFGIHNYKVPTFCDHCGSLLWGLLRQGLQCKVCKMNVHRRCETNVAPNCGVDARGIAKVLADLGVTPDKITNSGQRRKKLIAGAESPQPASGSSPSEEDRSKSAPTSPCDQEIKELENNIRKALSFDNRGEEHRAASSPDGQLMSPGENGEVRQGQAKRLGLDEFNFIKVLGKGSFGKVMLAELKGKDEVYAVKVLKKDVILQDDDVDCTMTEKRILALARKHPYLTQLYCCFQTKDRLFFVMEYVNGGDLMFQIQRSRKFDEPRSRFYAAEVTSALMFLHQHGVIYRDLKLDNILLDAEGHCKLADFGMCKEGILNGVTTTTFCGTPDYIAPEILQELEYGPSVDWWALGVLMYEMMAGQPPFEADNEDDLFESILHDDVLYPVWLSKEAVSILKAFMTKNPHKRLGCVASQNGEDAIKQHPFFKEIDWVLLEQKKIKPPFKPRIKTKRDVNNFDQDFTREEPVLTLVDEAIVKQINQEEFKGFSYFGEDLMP
Procedure: as §1, §2, §3, §4

PCTK1 = biological target: T16, PCTK1 (Homo sapiens, UniProt Q00536); assay: KINOMEscan kinase profiling; type: binding; details: read-out: Percent Control
T16 construct: purchased DiscoverX KINOMEscan (kinases); BPS Bioscience (epigenetic targets)
T16 sequence (Q00536 whole entry): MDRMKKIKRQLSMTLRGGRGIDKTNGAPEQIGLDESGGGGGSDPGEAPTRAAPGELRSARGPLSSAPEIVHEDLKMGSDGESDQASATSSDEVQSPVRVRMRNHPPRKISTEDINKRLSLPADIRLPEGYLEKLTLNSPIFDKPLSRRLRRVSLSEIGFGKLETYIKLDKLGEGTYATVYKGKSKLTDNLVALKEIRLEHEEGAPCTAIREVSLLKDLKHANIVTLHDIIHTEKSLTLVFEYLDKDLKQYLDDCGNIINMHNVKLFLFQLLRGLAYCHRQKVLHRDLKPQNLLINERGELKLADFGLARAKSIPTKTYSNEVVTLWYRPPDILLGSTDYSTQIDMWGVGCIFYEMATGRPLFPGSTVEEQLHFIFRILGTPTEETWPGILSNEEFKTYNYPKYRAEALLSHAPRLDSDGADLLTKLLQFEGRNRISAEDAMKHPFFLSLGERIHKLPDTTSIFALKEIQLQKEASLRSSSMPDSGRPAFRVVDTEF
Procedure: as §1, §2, §3, §4

JNK2 = biological target: T17, JNK2 (Homo sapiens, UniProt P45984); assay: KINOMEscan kinase profiling; type: binding; details: read-out: Percent Control
T17 construct: purchased DiscoverX KINOMEscan (kinases); BPS Bioscience (epigenetic targets)
Procedure: as §1, §2, §3, §4

[1] = 10 µM, read-out: Percent Control

COc1cc2c(NC3CCN(C)CC3)cc(-c3ccc(C)o3)nc2cc1OCCCN1CCCC1 [CM-272, 6-methoxy-2-(5-methyl-2-furyl)-N-(1-methyl-4-piperidyl)-7-(3-pyrrolidin-1-ylpropoxy)quinolin-4-amine]
GI50 (SU-DHL-8): 1950 nM
GI50 5637: 717 nM
GI50 (HT): 1170 nM
remaining binding at 10 µM (EGFR(L858R)): 100%
remaining binding at 10 µM (CHEK1): 99%
remaining binding at 10 µM (ABL1-phosphorylated): 4.8%
remaining binding at 10 µM (TRKA; [1]): 0%
Kd (TRKA; KINOMEscan): 1100 nM
remaining binding at 10 µM (CSF1R): 100%
remaining binding at 10 µM (IGF1R): 97%
remaining binding at 10 µM (PLK3): 73%
remaining binding at 10 µM (RAF1): 73%
remaining binding at 10 µM (AURKA): 71%
remaining binding at 10 µM (p38-alpha): 96%
remaining binding at 10 µM (p38-beta): 92%
remaining binding at 10 µM (MLK1): 100%
remaining binding at 10 µM (VEGFR2): 23%
remaining binding at 10 µM (CDK9): 96%
remaining binding at 10 µM (PRKCE; [1]): 0%
Kd (PRKCE; KINOMEscan): 1200 nM
remaining binding at 10 µM (PCTK1): 23%
remaining binding at 10 µM (JNK2): 34%
